Results as given in US20200216863A1, “Use of renewable deep eutectic solvents in a one-pot process for a biomass” (National Technology & Engineering Solutions of Sandia, LLC, priority 2019, published 2020).

Key:
[1] = test system: yeast; details: cited from earlier work
[2] = test system: yeast strain JBEI-9009; type: cell-based
Procedure: Next, in order to test the feasibility of C5/C6 sugar cofermentation and thus to further improve the economic feasibility of the process,(22) the yeast strain JBEI-9009, developed in our lab for optimized xylose consumption,(30) was used for further experiments.
(§1) The effect of DES-Ch12 supplementation on growth and carbon utilization of JBEI-9009 was analyzed in a plate reader-based assay. […] To test if the presence of DES-Ch12 in the media impairs the ability of the strain JBEI-9009 to efficiently utilize xylose, the strain was cultivated in CSM media with 2 wt % xylose containing 10 wt % Ch12 and final samples were taken for HPLC measurements.

[3] = test system: unmodified control strain; type: cell-based, yeast
Procedure: as §1

For `O=C(O)/C=C/c1ccc(O)cc1` [p-coumaric acid], which “concentration required for inhibition of yeast growth” value [1] is on record?
The value was ~1000 µM.

For [Ch][Cl]-2glycerol [Ch12], which growth tolerance [2] is on record?
Its growth tolerance is “without showing significant growth limitations”.

What about the lag phase [2] of the same compound?
Its lag phase is “longer lag phase”.

What about the growth tolerance [3] of the same compound?
The growth tolerance was “without showing significant growth limitations”.

With `O=C(O)c1ccccc1` [Benzoic acid] as the compound, how does the “concentration required for inhibition of yeast growth” value [1] read?
Its value is ~1000 µM.

What does the source list for `O=Cc1ccc(CO)o1` [HMF, hydroxymethylfurfural]?
concentration with significant inhibition of yeast growth [1]: 3000 µg/mL; ethanol yield in presence of inhibitor [1]: 89%
